From ChEMBL document CHEMBL1121833, “Structure--sweetness relationship of L-aspartyl dipeptide analogues. A receptor site topology” (J Med Chem, 1981) come the findings set out here.

Peptide text beside a SMILES is read from it.

The first experiment in a line: Sweet potency as logarithm of sweet potency (log SP) relative to sucrose; Sweet. The experiment is classed as functional.
For the compound `C[C@@H](Cc1ccc(O)cc1)NC(=O)[C@H](N)CC(=O)O`, the “Log SP” value is listed as “Sweet”.
Take `C[C@H](NC(=O)[C@H](N)CC(=O)O)C(O)c1ccccc1` (some centres not stated): the “Log SP” value is “Sweet”.
`CCC(C)C[C@H](C)NC(=O)[C@H](N)CC(=O)O` (some centres not stated): the “Log SP” value is “Sweet”.
As to `N[C@H](CC(=O)O)C(=O)NCCc1ccco1`, the “Log SP” value is “Sweet”.
For the compound `CCCC[C@H](CC)NC(=O)[C@H](N)CC(=O)O`, the “Log SP” value was “Sweet”.
As to `CCCCCCNC(=O)[C@H](N)CC(=O)O`, the “Log SP” value was “Sweet”.
As to `N[C@H](CC(=O)O)C(=O)N[C@@H](CO)Cc1ccc(O)cc1`, the “Log SP” value is recorded as “Sweet”.

Another experiment in a line: Sweet potency as logarithm of sweet potency (log SP) relative to sucrose. The class given is functional.
Regarding `CC(C)OC(=O)[C@H](C)NC(=O)[C@H](N)CC(=O)O`, the Log SP came to 1.95.
For `N[C@H](CC(=O)O)C(=O)N[C@@H](CO)COC(=O)C1CCC1`, the Log SP was 1.71.
`CC(CNC(=O)[C@H](N)CC(=O)O)C(=O)OC(C)(C)C` (some centres not stated) yielded a Log SP of 0.51.
`C[C@@H](CC(=O)OC1CCCCC1)NC(=O)[C@H](N)CC(=O)O` returned a Log SP of 0.64.
On the same count and under the same terms, with `C[C@@H](COc1ccccc1)NC(=O)[C@H](N)CC(=O)O` the figure was 1.19.
Consider `COC(=O)C(NC(=O)[C@@H](N)CC(=O)O)C(=O)OCC1C2(C)CCC(C2)C1(C)C` (some centres not stated), for which the Log SP was found to be 4.79.
Regarding `CC(C)C(=O)OC[C@H](CO)NC(=O)[C@H](N)CC(=O)O`, the Log SP was 1.48.
In turn, `COC(=O)[C@H](NC(=O)[C@H](N)CC(=O)O)C(=O)OC1CCCC1` gave a Log SP of 2.92.
`CCOC(=O)[C@H](NC(=O)[C@@H](N)CC(=O)O)[C@@H](C)O` had a Log SP of 0.66.
On to `CC[C@H](NC(=O)[C@H](N)CC(=O)O)C(=O)OC`, for which the Log SP is 1.04.
Compound `CC(C)C(=O)OC[C@H](C)NC(=O)[C@H](N)CC(=O)O` yielded a Log SP of 1.98.
The same measure, in the same setting: the same measure for `N[C@H](CC(=O)O)C(=O)NCCC(=O)OC1CCCCC1`: 1.22; for `COC(=O)[C@@H](Cc1ccc(O)cc1)NC(=O)[C@H](N)CC(=O)O`: 2.15; for `N[C@H](CC(=O)O)C(=O)N[C@@H](CO)C(=O)OC1CCCCC1`: 1.72.
For the compound `CC(C)CC(=O)OCCNC(=O)[C@H](N)CC(=O)O`, the Log SP is 1.36.
The compound `COC(=O)[C@H](NC(=O)[C@H](N)CC(=O)O)C(=O)OC(C)(C)C` came in with a Log SP of 2.03.
On to `CCCOC(=O)CNC(=O)[C@H](N)CC(=O)O`, for which the Log SP was determined as 0.98.
`CC(C)C(=O)OC[C@@H](NC(=O)[C@H](N)CC(=O)O)C(C)C` had a Log SP of 1.1.
The compound `CC(C)(C)OC(=O)CCNC(=O)[C@H](N)CC(=O)O` registered a Log SP of 0.36.
As for `CCCSC[C@@H](NC(=O)[C@H](N)CC(=O)O)C(=O)OC`, the Log SP worked out at 2.11.
The compound `CC(C)CC(=O)OC[C@H](C)NC(=O)[C@H](N)CC(=O)O` came in with a Log SP of 2.08.
In turn, `COC(=O)[C@@H](CSC(C)(C)C)NC(=O)[C@H](N)CC(=O)O` yielded a Log SP of 2.95.
`CCCCC[C@@H](NC(=O)[C@H](N)CC(=O)O)C(=O)OC` showed a Log SP of 1.9.
With `COC(=O)CCNC(=O)[C@H](N)CC(=O)O`, the Log SP was found to be 0.11.
The compound `CCOC(=O)C(NC(=O)[C@H](N)CC(=O)O)C(=O)OCC` came in with a Log SP of 1.35.
Compound `CC(=O)OC[C@H](CO)NC(=O)[C@H](N)CC(=O)O` came in with a Log SP of 1.23.
Same read-out and setting: with `COC(=O)C(NC(=O)[C@@H](N)CC(=O)O)C(C)c1ccccc1` (some centres not stated) the figure was 0.95.
Compound `CCC(C)C(=O)OC[C@H](C)NC(=O)[C@H](N)CC(=O)O` (some centres not stated) had a Log SP of 2.08.
`CCCC(O)[C@H](NC(=O)[C@H](N)CC(=O)O)C(=O)OC` (stereo in doubt; 57) returned a Log SP of 0.75.
For the compound `CCC(=O)OC[C@@H](NC(=O)[C@H](N)CC(=O)O)C(=O)OC`, the Log SP worked out at 1.53.
On the same count and under the same terms, with `N[C@H](CC(=O)O)C(=O)NCCOC(=O)C1CC1` the figure was 1.03.
Regarding `COC(=O)C(NC(=O)[C@@H](N)CC(=O)O)C(=O)OC1CC2CCC1(C)C2(C)C` (some centres not stated), the Log SP is 3.16.
Turning to `CC(CNC(=O)[C@H](N)CC(=O)O)C(=O)OC1CCCCC1` (some centres not stated), the Log SP turned out to be 0.94.
With `COC(=O)C[C@@H](NC(=O)[C@H](N)CC(=O)O)C(=O)OC`, the Log SP was found to be 0.6.
In turn, `CCOC(=O)C[C@H](C)NC(=O)[C@H](N)CC(=O)O` (stereo in doubt; 128) had a Log SP of 1.16.
With `COC(=O)[C@@H](COC(=O)C(C)(C)C)NC(=O)[C@H](N)CC(=O)O`, the Log SP turned out to be 1.81.
With `CCCCOC(=O)[C@H](C)NC(=O)[C@H](N)CC(=O)O`, the Log SP was determined as 0.9.
Same read-out and setting: the same measure for `CC(C)OC(=O)CCNC(=O)[C@H](N)CC(=O)O`: 0.7; for `COC[C@@H](COC(C)=O)NC(=O)[C@H](N)CC(=O)O`: 0.48; for `CCCOC(=O)[C@H](CCC)NC(=O)[C@H](N)CC(=O)O`: 1.56.
Turning to `COC(=O)C(NC(=O)[C@@H](N)CC(=O)O)C(=O)OC1CCCCC1C` (stereo in doubt; 203), the Log SP is 4.11.
As to `CCOC(=O)[C@H](NC(=O)[C@H](N)CC(=O)O)C(=O)OC1CCCC1`, the Log SP amounted to 2.44.
`CC(C)COC(=O)[C@H](NC(=O)[C@@H](N)CC(=O)O)[C@H](C)O` returned a Log SP of 1.36.
Same read-out and setting: the same measure for `CC(C)(Cc1ccccc1)NC(=O)[C@H](N)CC(=O)O`: 1.19; for `CCOC(=O)[C@H](NC(=O)[C@H](N)CC(=O)O)C(=O)OC1CCCCC1`: 2.68; for `COC(=O)CNC(=O)[C@H](N)CC(=O)O`: 0.68.
`CC(=O)OC[C@@H](NC(=O)[C@H](N)CC(=O)O)C(C)C`: the Log SP was 1.58.
Same read-out and setting: with `CC(C)OC(=O)C[C@H](C)NC(=O)[C@H](N)CC(=O)O` the figure was 0.84; with `CC(C)OC(=O)[C@H](CO)NC(=O)[C@H](N)CC(=O)O`, 1.96.
For the compound `N[C@H](CC(=O)O)C(=O)N[C@@H](CO)COC(=O)C1CC1`, the Log SP was 1.96.
Turning to `CCC(=O)OC[C@@H](NC(=O)[C@H](N)CC(=O)O)C(C)C`, the Log SP came out at 1.6.
`CCCC(=O)OC[C@H](CO)NC(=O)[C@H](N)CC(=O)O` registered a Log SP of 0.58.
`COC(=O)[C@@H](CC1CCCCC1)NC(=O)[C@H](N)CC(=O)O` registered a Log SP of 2.3.
The compound `CC[C@@H](COC(C)=O)NC(=O)[C@H](N)CC(=O)O` returned a Log SP of 1.16.
On to `CCCCOC(=O)[C@H](NC(=O)[C@@H](N)CC(=O)O)[C@H](C)O`, for which the Log SP was determined as 1.23.
The compound `CC(C)OC(=O)[C@@H](NC(=O)[C@H](N)CC(=O)O)C(C)C` had a Log SP of 2.15.
Take `CCC(=O)OCCNC(=O)[C@H](N)CC(=O)O`: the Log SP turned out to be 0.61.
Compound `CCC(CC)OC(=O)[C@@H](NC(=O)[C@H](N)CC(=O)O)C(=O)OC` (stereo in doubt; 198) came in with a Log SP of 2.79.
The compound `CCSC[C@@H](NC(=O)[C@H](N)CC(=O)O)C(=O)OC` had a Log SP of 1.6.
`CCC(CC)C(=O)OC[C@H](C)NC(=O)[C@H](N)CC(=O)O`: the Log SP stood at 1.53.
Same read-out and setting: the same measure for `CCCC(C)OC(=O)CCNC(=O)[C@H](N)CC(=O)O` (some centres not stated): 0.68; for `N[C@H](CC(=O)O)C(=O)NCC(=O)OC1CCCCC1`: 1.02.
For `CC[C@@H](COC(=O)C(C)C)NC(=O)[C@H](N)CC(=O)O`, the Log SP amounted to 1.38.
In turn, `CCCCCOC(=O)[C@H](C)NC(=O)[C@H](N)CC(=O)O` returned a Log SP of 0.68.
Regarding `CCC[C@@H](COC(C)=O)NC(=O)[C@H](N)CC(=O)O`, the Log SP was determined as 0.66.
In turn, `CC(C)C(=O)OCCNC(=O)[C@H](N)CC(=O)O` yielded a Log SP of 1.16.

The nature of another experiment: Sweet potency as logarithm of sweet potency (log SP) relative to sucrose; No sweet. The class given is functional.
With `COC(=O)C(NC(=O)[C@@H](N)CC(=O)O)C(=O)OC1CC(C)CCC1C(C)C` (some centres not stated), the “Log SP” value is “Not sweet”.
With `CCCCOC(=O)CCNC(=O)[C@H](N)CC(=O)O`, the “Log SP” value is “Not sweet”.
Still for that read-out and setting: the same measure for `CC(=O)OC[C@H](CC(C)C)NC(=O)[C@H](N)CC(=O)O`: “Not sweet”; for `COC(=O)C(CNC(=O)[C@H](N)CC(=O)O)C(=O)OC`: “Not sweet”; for `C[C@@H](COC(=O)c1ccccc1)NC(=O)[C@H](N)CC(=O)O`: “Not sweet”.
For `C[C@@H](COC(=O)C1CCCC(C)(C)C1)NC(=O)[C@H](N)CC(=O)O` (some centres not stated), the “Log SP” value was “Not sweet”.
Consider `CCOC(=O)C[C@H](Cc1ccccc1)NC(=O)[C@H](N)CC(=O)O`, for which the “Log SP” value is “Not sweet”.
Consider `CCC(C)[C@@H](COC(C)=O)NC(=O)[C@H](N)CC(=O)O` (some centres not stated), for which the “Log SP” value is “Not sweet”.
For the compound `CC[C@@H](COC(=O)C1CCCCC1)NC(=O)[C@H](N)CC(=O)O`, the “Log SP” value is “Not sweet”.
Still for that read-out and setting: the same measure for `CC[C@H](C)[C@H](NC(=O)[C@@H](N)CC(=O)O)C(=O)OC` (H-Asp-Ile-OMe): “Not sweet”; for `CC(C)C[C@H](NC(=O)[C@H](N)CC(=O)O)C(=O)OC(C)C`: “Not sweet”.
On to `CCCCC(=O)OC[C@H](CC)NC(=O)[C@H](N)CC(=O)O`, for which the “Log SP” value was “Not sweet”.
For the compound `CCC[C@@H](COC(=O)CC)NC(=O)[C@H](N)CC(=O)O`, the “Log SP” value is “Not sweet”.
Same read-out and setting: with `COC(=O)C(CNC(=O)[C@H](N)CC(=O)O)C(=O)OC1CCCC1` (some centres not stated) the entry was “Not sweet”; with `COC(=O)[C@@H](CC(C)C)NC(=O)[C@H](N)CC(=O)O`, “Not sweet”.
Regarding `CC1CCCCC1OC(=O)CCNC(=O)[C@H](N)CC(=O)O` (some centres not stated), the “Log SP” value is “Not sweet”.
Consider `C[C@@H](COC(=O)C1CCCCC1)NC(=O)[C@H](N)CC(=O)O`, for which the “Log SP” value was “Not sweet”.
Take `CC[C@@H](CC(=O)OC(C)C)NC(=O)[C@H](N)CC(=O)O`: the “Log SP” value is “Not sweet”.
`COC(=O)C(CNC(=O)[C@H](N)CC(=O)O)C(=O)OC1CCCCC1` (some centres not stated): the “Log SP” value is “Not sweet”.
`CC(=O)OC[C@H](Cc1ccccc1)NC(=O)[C@H](N)CC(=O)O`: the “Log SP” value is “Not sweet”.
The same measure, in the same setting: the same measure for `COC(=O)C(CNC(=O)[C@H](N)CC(=O)O)Cc1ccccc1` (some centres not stated): “Not sweet”.
As for `COC(=O)[C@@H](COC(=O)c1ccccc1)NC(=O)[C@H](N)CC(=O)O`, the “Log SP” value was “Not sweet”.
Consider `COC(=O)[C@@H](CC(=O)OC1CCCCC1)NC(=O)[C@H](N)CC(=O)O`, for which the “Log SP” value was “Not sweet”.
Still for that read-out and setting: the same measure for `CC[C@@H](CC(=O)OC1CCCCC1)NC(=O)[C@H](N)CC(=O)O`: “Not sweet”.
